Test results: PMC4444023 (PLoS ONE, 2015)
Entries after “also recorded” stand apart in the source; their conditions may differ.

Columns and labels:
Format in all cases: biochemical
rat nSMase2 = target: T1, rat nSMase2 (Rattus norvegicus, UniProt O35049); assay: Fluorescence assay with rat brain homogenate membrane fraction; details: rat brain homogenates
T1 construct: A membrane protein-enriched fraction of rat brain homogenate was used as the source for nSMase2; from tissue; host or cells: rat brain homogenate, membrane protein-enriched fraction
T1 sequence (O35049 1-655): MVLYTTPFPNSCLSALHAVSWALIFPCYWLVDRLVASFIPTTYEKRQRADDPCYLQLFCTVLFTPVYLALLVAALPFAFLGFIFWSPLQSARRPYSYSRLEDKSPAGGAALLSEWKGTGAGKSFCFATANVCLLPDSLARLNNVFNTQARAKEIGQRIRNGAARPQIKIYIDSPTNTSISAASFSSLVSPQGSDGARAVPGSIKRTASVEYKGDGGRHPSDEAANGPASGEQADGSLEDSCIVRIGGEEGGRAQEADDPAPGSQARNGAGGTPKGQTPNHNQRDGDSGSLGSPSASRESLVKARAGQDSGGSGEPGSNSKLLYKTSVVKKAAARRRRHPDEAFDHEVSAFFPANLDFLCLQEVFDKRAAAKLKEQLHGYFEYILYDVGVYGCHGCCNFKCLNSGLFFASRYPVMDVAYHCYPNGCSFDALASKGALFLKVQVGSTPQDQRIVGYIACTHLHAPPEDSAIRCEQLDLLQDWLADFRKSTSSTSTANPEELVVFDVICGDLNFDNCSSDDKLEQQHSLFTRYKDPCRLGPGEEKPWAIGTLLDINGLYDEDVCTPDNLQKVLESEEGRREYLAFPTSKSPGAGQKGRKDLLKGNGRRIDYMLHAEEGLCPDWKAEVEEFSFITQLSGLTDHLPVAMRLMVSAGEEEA

B. cereus nSMase = B. cereus nSMase (Bacillus cereus, UniProt P11889); assay: Inhibition of bacterial nSMase (not shown)
Sequence of B. cereus nSMase (P11889 28-333): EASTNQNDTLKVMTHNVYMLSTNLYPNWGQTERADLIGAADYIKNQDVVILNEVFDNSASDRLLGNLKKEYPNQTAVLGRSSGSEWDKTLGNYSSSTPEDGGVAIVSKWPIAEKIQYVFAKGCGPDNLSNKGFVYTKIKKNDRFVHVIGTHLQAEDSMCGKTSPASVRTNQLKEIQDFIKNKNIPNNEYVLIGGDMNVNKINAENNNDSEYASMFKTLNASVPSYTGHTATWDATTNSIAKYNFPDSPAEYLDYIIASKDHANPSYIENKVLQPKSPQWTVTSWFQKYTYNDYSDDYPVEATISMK

human nSMase2 [1] = target: T2, human nSMase2 (Homo sapiens, UniProt Q9NY59); assay: Fluorescence (Amplex red coupled) nSMase2 activity assay; design: Full length human nSMase2 cDNA with a C-terminal Flag tag; crude cell lysate used as enzyme
T2 sequence (Q9NY59 1-655): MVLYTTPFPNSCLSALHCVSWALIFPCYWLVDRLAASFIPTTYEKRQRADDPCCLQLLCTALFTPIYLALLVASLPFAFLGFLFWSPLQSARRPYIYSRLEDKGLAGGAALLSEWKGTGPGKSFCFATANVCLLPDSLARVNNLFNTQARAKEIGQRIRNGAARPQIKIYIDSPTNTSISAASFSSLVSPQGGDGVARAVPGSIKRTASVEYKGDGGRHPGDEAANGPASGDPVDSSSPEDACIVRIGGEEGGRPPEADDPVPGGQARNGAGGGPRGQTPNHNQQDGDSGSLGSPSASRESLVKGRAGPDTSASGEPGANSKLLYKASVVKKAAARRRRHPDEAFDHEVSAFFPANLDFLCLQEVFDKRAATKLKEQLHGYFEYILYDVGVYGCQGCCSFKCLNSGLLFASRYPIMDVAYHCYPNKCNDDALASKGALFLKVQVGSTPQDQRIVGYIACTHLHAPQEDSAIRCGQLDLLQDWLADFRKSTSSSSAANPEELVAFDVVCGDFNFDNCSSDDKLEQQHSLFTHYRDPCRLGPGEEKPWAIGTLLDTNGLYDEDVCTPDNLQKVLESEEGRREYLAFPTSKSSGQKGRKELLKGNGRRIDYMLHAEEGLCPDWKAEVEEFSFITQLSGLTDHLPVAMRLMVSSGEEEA
Protocol: The production of the latter was coupled to a dephosphorylation reaction catalyzed by alkaline phosphatase (4 U/ml) to produce choline, followed by oxidation of choline by choline oxidase (0.1 U/ml) to produce betaine and H2O2, which in the presence of horseradish peroxidase (HRP, 1U/ml) and 50 μM Amplex red, generates the fluorescent molecule resorufin (Life Technologies). Substrate stock solution was prepared in 2% Triton X-100, vortexed and sonicated for 30 min. Reactions were carried out for 1 h at 37°C in 100 mM Tris-HCl pH 7.4, 10 mM MgCl2, 0.2% Triton X-100 and the generation of the fluorescent product was monitored by measuring relative florescence units (RFU) with excitation at 530 nm and emission at 590 nm (Fig 1). This assay was optimized for 384-well format (50 μl total volume per well) based on linearity of the enzymatic activity with respect to time, as well as substrate and enzyme concentrations. […] This fluorescence assay was used for compound screening and IC50 value determinations, based on duplicate eight-point dose response curves.

human nSMase2 [2] = target: T2, human nSMase2; assay: Time dependence study of cambinol inhibitory activity; design: Full length human nSMase2 cDNA with a C-terminal Flag tag; host or cells: HEK293, stably transfected; crude cell lysate used as enzyme; details: pre-incubation up to 2 h
Protocol: ^bCambinol IC50 values were determined from 8-points dose response curves run in duplicate.

O=c1[nH]c(=S)[nH]c(-c2ccccc2)c1Cc1c(O)ccc2ccccc12 [Cambinol, cambinol]
IC50 (rat nSMase2): 6 µM
IC50 (B. cereus nSMase): 5 µM
1/V (human nSMase2 [1]; 1/[SM] 0.002 µM^-1, 2 µM Cambinol): 0.00052 h/RFU
1/V (human nSMase2 [1]; 1/[SM] 0.002 µM^-1, 3 µM Cambinol): 0.00066 h/RFU
1/V (human nSMase2 [1]; 1/[SM] 0.002 µM^-1, 5 µM Cambinol): 0.00102 h/RFU
1/V (human nSMase2 [1]; 1/[SM] 0.003 µM^-1, 2 µM Cambinol): 0.00062 h/RFU
1/V (human nSMase2 [1]; 1/[SM] 0.003 µM^-1, 3 µM Cambinol): 0.00078 h/RFU
1/V (human nSMase2 [1]; 1/[SM] 0.003 µM^-1, 5 µM Cambinol): 0.00109 h/RFU
1/V (human nSMase2 [1]; 1/[SM] 0.006 µM^-1, 2 µM Cambinol): 0.00075 h/RFU
1/V (human nSMase2 [1]; 1/[SM] 0.006 µM^-1, 3 µM Cambinol): 0.00095 h/RFU
1/V (human nSMase2 [1]; 1/[SM] 0.006 µM^-1, 5 µM Cambinol): 0.00128 h/RFU
1/V (human nSMase2 [1]; 1/[SM] 0.013 µM^-1, 2 µM Cambinol): 0.00096 h/RFU
1/V (human nSMase2 [1]; 1/[SM] 0.013 µM^-1, 3 µM Cambinol): 0.00118 h/RFU
1/V (human nSMase2 [1]; 1/[SM] 0.013 µM^-1, 5 µM Cambinol): 0.00146 h/RFU
V (human nSMase2 [1]; [SM] 19.5 µM, 2 µM Cambinol): 641 RFU/h
V (human nSMase2 [1]; [SM] 19.5 µM, 3 µM Cambinol): 571 RFU/h
V (human nSMase2 [1]; [SM] 19.5 µM, 5 µM Cambinol): 500 RFU/h
V (human nSMase2 [1]; [SM] 39.0 µM, 2 µM Cambinol): 752 RFU/h
V (human nSMase2 [1]; [SM] 39.0 µM, 3 µM Cambinol): 663 RFU/h
V (human nSMase2 [1]; [SM] 39.0 µM, 5 µM Cambinol): 567 RFU/h
V (human nSMase2 [1]; [SM] 78.0 µM, 2 µM Cambinol): 1042 RFU/h
V (human nSMase2 [1]; [SM] 78.0 µM, 3 µM Cambinol): 849 RFU/h
V (human nSMase2 [1]; [SM] 78.0 µM, 5 µM Cambinol): 684 RFU/h
V (human nSMase2 [1]; [SM] 156.0 µM, 2 µM Cambinol): 1336 RFU/h
V (human nSMase2 [1]; [SM] 156.0 µM, 3 µM Cambinol): 1055 RFU/h
V (human nSMase2 [1]; [SM] 156.0 µM, 5 µM Cambinol): 784 RFU/h
V (human nSMase2 [1]; [SM] 313.0 µM, 2 µM Cambinol): 1621 RFU/h
V (human nSMase2 [1]; [SM] 313.0 µM, 3 µM Cambinol): 1288 RFU/h
V (human nSMase2 [1]; [SM] 313.0 µM, 5 µM Cambinol): 922 RFU/h
mode of inhibition (MOI) (human nSMase2 [1]; human nSMase2): uncompetitive
time dependence of inhibition (human nSMase2 [2]): did not change; also recorded: independent of pre-incubation time
